Where two headings read alike, the source gives them in different places.
Tests used:
4T1 mouse mammary tumors = assay: In vivo laser treatment of implanted 4T1 mammary tumors in mice with SWNT-annexin V complex; parameters: species or system BALB/cJ mice
Procedure: In another embodiment, female BALB/cJ mice, age 6 weeks (received from Jackson Laboratory (Bar Harbor, Me.) were treated. Animal experimentation was not started until the animals were 9 weeks old. The animals were kept in a dedicated room in the animal facility located in the Zoology building of the University of Oklahoma. All of the protocols used involving animals were previously submitted and approved by the Institutional Animal Care and Use Committee (IACUC). All of the animals were placed in appropriate cages with food and water in an adequate environment. Each cage hosted five animals. The anesthetics used were ketamine (100 mg/ml) and xylazine (20 mg/ml). In order to prepare the anesthetic solution, 1 ml of ketamine (100 mg/ml) was mixed with 0.5 ml of xylazine (20 mg/ml) and 8.5 ml of sterile saline solution (0.9% NaCl). The dosage used for each animal was equal to 0.1 ml of the stock solution per 10 grams of body weight. Prior to anesthetizing the animals, each of them was weighted using a scale.
In order to evaluate the ability to eradicate the tumors using this therapy in vivo, it was necessary to implant a suitable cancer cell line in the animals. The 4T1 cell line was chosen for this study, since these cells have the ability to replicate at a fast rate and also develop visible tumors in BALB/c mice in a matter of less than one week after implantation. […] After having the eight T-75 flasks growing for 2 days, there are plenty of cells to inject the animals, for each test. The cells are then lifted from the flasks using ACCUTASE® solution (Innovative Cell Technologies, San Diego, Calif.), using the same procedure as for human endothelial cells. […] Knowing that it is necessary to inject 5×10^5 cells/animal (volume=100 μl), the total number of cells was determined. The cell concentration in the sample was evaluated using the standard cell counting procedure. […]
After irradiation, the tumor volumes were monitored every two days. […] The length and width of the tumors was measured using a digital caliper. The tumor volumes were determined by applying the following formula: […]

[1] = system: human endothelial cells with phosphatidylserine exposed by H2O2; assay: Binding of SWNT-annexin V (biotinylated) to human endothelial cells in vitro (streptavidin-HRP/OPD, A450)
Procedure: Purified recombinant annexin V was labeled with biotin for detection (SureLINK chromophoric biotin labeling kit; KPL, Gaithersburg, Md.) with a 40-molar excess of biotin. Biotin labeling of annexin V has been found previously not to impair the PS-binding of annexin V. The following procedure was used to measure the binding of the SWNT-annexin V (biotinylated) to human endothelial cells in vitro.
Human endothelial cells (American Type Culture Collection, Manassas, Va.) were grown as monolayers in T-75 flasks. […] The cells were fixed by adding 100 μl of phosphate buffered saline (PBS) buffer containing 0.25% glutaraldehyde and Ca^2+ (2 mM). Excess aldehyde groups were quenched by incubating with 50 mM of NH4Cl (100 μl) diluted in PBS buffer containing Ca^2+ (2 mM) for 5 minutes. The SWNT-annexin V conjugate was diluted in 0.5% BSA diluted in PBS buffer and Ca^2+ (2 mM) with an initial concentration of […]. This concentrated fusion protein solution was serially diluted 2-fold until a final concentration of 6.7 μM. SWNT-CMC-annexin V (300 μl) was added to wells in the increasing concentration of SWNT-CMC-annexin V. For each concentration of SWNT-CMC-annexin V, the experiment was done in duplicate and incubated for 2 hours. Plates were washed with 0.5% BSA diluted in PBS buffer and Ca^2+ (2 mM) (300 μl). 300 μl of streptadivin-HRP (horseradish peroxidase) (2 μg/ml) was added and incubated for 1 hour at room temperature. The plate was then washed with PBS (300 μl), and the chromogenic substrate O-phenylenediamine (OPD, 300 μl) was added and incubated for 30 minutes. 100 μl of the supernatant was then transferred to 96-well plates, and absorbance was measured at 450 nm (Biotek KC4 microtiter plate reader) using a blank that omits the addition of SWNT-annexin V described above.
The data obtained above for the binding of SWNT-CMC-annexin V to human endothelial cells in vitro was used in the determination of the dissociation constant (Kd). […]

human endothelial cells [2] = system: human endothelial cells
Procedure: The effects of irradiation of SWNTs bound to endothelial cells were tested in vitro. […] The following procedure was used to treat human endothelial cells in vitro with SWNT-CMC-annexin V bound.
Cells were grown using F12K media containing 10% FBS until they reach 85% confluence in T-75 flasks, and the cells were then counted using a hemocytometer. Cancer cells (5×10^4) were transferred to 24 well plates (6 plates, with 3 wells per plate containing cells) and grown until 85% confluence was reached. Two extensive dialyses were performed (with a total dilution factor of 1,000,000×) in order to remove the sodium azide from the SWNT-CMC-biotinylated annexin V. The first dialysis for 3 hours (1000×) was performed using modification buffer (100 mM sodium phosphate, 150 mM NaCl, pH 7.2-7.4). The buffer was changed and the dialysis continued for 4 more hours. 1 ml of the suspension of SWNT-CMC-biotinylated annexin V was used. PS was exposed on the surface of cells by the addition of hydrogen peroxide (1 mM), and the cells were treated with 300 μl binding buffer containing the F12K media containing 1 mM of H2O2 for 1 hour at 37° C. The plates were washed 4× with F12K media (containing 10% FBS) (300 μl), and SWNT-CMC-biotinylated-annexin V (300 μl) was added to wells at a concentration of 20 nM. In order to obtain this concentration, the protein was diluted using F12K media (containing 10% FBS plus 2 mM Ca^2+). For each plate, the experiment was done in triplets. The plates were incubated for 2 hours in the incubator and then washed 4× with F12K media (containing 10% FBS plus 2 mM Ca^2+) (300 μl). […] Cell viability was evaluated one hour later by adding Alamar Blue in an amount equal to 10% of culture media (30 μl of Alamar Blue+300 μl of media) volume to the wells. […] Fluorescence was then measured at 590 nm (using excitation at 530 nm). […] The cells that were attached were treated with trypsin, and the cells were combined in the 96-well plates and counted in a hemocytometer. […]

human endothelial cells [3] = assay: Laser irradiation of human endothelial cells with SWNT-Fmoc-NH-PEG-NHS-annexin V bound (Alamar Blue); format: cell-based; conditions: 20 nM protein
Procedure: The procedure described above was applied using the human annexin V protein but any Annexin described herein could be used. […] The media was warmed up in the incubator at 37° C. and then removed from the wells. […] For each plate, the experiment was performed in triplets.
The samples (300 μl/well) were then transferred to a 96-microtiter plate, and fluorescence was measured at 590 nm (using excitation at 530 nm).

human endothelial cells [4] = assay: Laser treatment of human endothelial cells with SWNT-annexin V complex, SDS method (Alamar Blue); format: cell-based
Procedure: SWNTs with annexin V conjugated using the Fmoc-NH-PEG-NHS linker added via the SDS method were used in a laser test with endothelial cells. […] The endothelial cells were transferred to 24 well plates (5×10^4 cells per well) and grown until 100% confluence was reached. A separate plate was used for each different treatment. The media was warmed up in the incubator at 37° C., and the media was removed from the wells. […] For each plate, the experiment was done with two or three wells.
300 μl of F12K media was added with 2 mM Ca^2+ to the wells, and the laser treatment was performed on each well using a beam with a diameter of 1.8 cm, power level of 3.9 W, and beam time of 130 s (energy density=199 J/cm^2).
Then, SWNT-annexing V was added to the wells as described above.

[5] = system: non-small-cell lung cancer (NSCLC) with pleural spread; conditions: 22 patients, photosensitizer 24 hours before surgery, 603 nm light; cited from earlier work
[6] = patients; cited from earlier work
[7] = human endothelial cells, FIG. 1

Which “effect of addition of CY on tumor volume reduction” value (4T1 mouse mammary tumors; CY 50 mg/kg i.p. added to SWNTs+Laser) does the source give for `O=P1(N(CCCl)CCCl)NCCCO1` (centres unmarked) [CY, cyclophosphamide] here?
Its value is “did not translate into a significant difference”.

What about the “effect of CY on metastatic nodules compared to laser+SWNT treatment alone” value (4T1 mouse mammary tumors; lungs) of the same compound?
Its value is “did not lead to fewer metastatic nodules”.

What about the “effect of addition of CY on survival” value (4T1 mouse mammary tumors; treatment group that received CY compared to the one that did not) of the same compound?
Its value is “increased survival”.

With “SWNT-CMC-annexin V: Recombinant annexin V (biotinylated) conjugated via EDC/NHS to carboxymethylcellulose (30 kDa) adsorbed to single-walled carbon nanotubes” as the compound, how does the Kd ([1]; binding to human endothelial cells in vitro, PS exposed with 1 mM H2O2, fit with Prism 5, read-out: dissociation constant (Kd)) read?
Its Kd is 2.9 nM.

And the “binding to the cells” value [1, 7]?
The value was “binding to the cells increased as the annexin V-SWNT complex concentration increased”.

What about the “concentration above which transition from negligible binding to measurable binding occurred” value [1, 7] of the same compound?
Its value is over 1000 pM.

And the “difference in RFU between cells with nanotubes and cells without nanotubes” value (human endothelial cells [2])?
The value was “no significant difference”.

What about the “cell number at 4 W/cm^2 relative to 0 W/cm^2” value (human endothelial cells [2]; 20 nM complex bound, 980 nm, 20 J/cm^2, hemocytometer) of the same compound?
Its value is 50%.

What about the “difference in RFU between cells with nanotubes and cells without nanotubes” value (human endothelial cells [2]; power level of 2 W/cm^2, 980 nm, 20 J/cm^2) of the same compound?
Its value is “no significant difference”.

With “SWNT-Fmoc-NH-PEG-NHS-annexin V: Human annexin V attached via Fmoc-NH-PEG-NHS linker adsorbed to SWNTs dispersed with sodium cholate” as the compound, how does the “effect on the cells (Alamar Blue)” value (human endothelial cells [3]; with laser 980 nm 1.50 W/cm^2 for 130 seconds (195 J/cm^2), H2O2, 85% confluence) read?
The value was “killing virtually all of the cells”.

And the “effect on the cells (Alamar Blue)” value (human endothelial cells [3]; without laser)?
The value was “no effect on the cells”.

With “SWNT-annexin V: SWNTs with annexin V conjugated using the Fmoc-NH-PEG-NHS linker added via the SDS method” as the compound, how does the cell viability (human endothelial cells [4]; 0.89 mg/L SWNT, 299 J/cm^2, hydrogen peroxide, versus 199 J/cm^2) read?
The cell viability was “again lower”.

And the “reduction of cell viability compared with untreated cells” value (human endothelial cells [4]; 0.89 mg/L SWNTs, laser energy 199 J/cm^2, hydrogen peroxide, 100% confluent cells)?
The value was 60%.

And the “effect on cell viability” value (human endothelial cells [4]; laser at 199 J/cm^2, 0.06-0.89 mg/L SWNT, no H2O2, significant (p<0.05) at 0.89 mg/L)?
The value was “concentration-dependent effect on cell viability”.

What about the “effect on the cells (Alamar Blue)” value (human endothelial cells [4]; without laser (plate 2, 0.06 mg/L SWNT)) of the same compound?
The value was “no effect on the cells”.

With porfimer sodium [porfirmer sodium] as the compound, how does the median survival [5] read?
The median survival was 21 months.

And the side effect [6]?
The side effect was “prolonged skin photosensitivity”.
